Assays:
Format in all cases: cell-based, human
[1] = MTT assay, cell viability of L-02 cells; conditions: human, L-02 (L02) normal hepatic cells, L-02, MTT, 24 h, read-out: cells viabilityrate
Procedure: (§1) The normal hepatic cell (L02) cell lines were obtained from the National Infrastructure of Cell Line Resources (Chinese Academy of Medical Sciences, Beijing, China), and maintained in Dulbecco’s modified Eagle’s medium (DMEM, 10-013-CVR) supplemented with 10% fetal bovine serum (FBS, Hyclone), 1% penicillin and streptomycin (PS, 100 IU/ml penicillin, 100 μg/ml streptomycin, Mediatech, 30-002-CI). All cells were incubated in a humidified atmosphere at 37°C with 5% CO2.
(§2) L-02 cells were trypsinized by 0.25% trypsin after reaching the confluence of 70–80% and plated in 96-well plates at the density of 1.6 × 10^3 […]. And L-02 cells were cultured for 24 hours in vitro before exposure to varying concentrations of different representative compounds with liver injury for further incubating in another 24 hours. Then, 20 μl of 0.25 mg/ml3-(4,5-dimethylthiazol-2-yl)-2,5-diphenyltetrazolium bromide (MTT)-tetrazolium salts (Sigma-Aldrich Corp., St. Louis, MO, USA) in PBS was added to each hole in 96-well plates. After 4 hours of incubation, the formazan crystals were dissolved by 150μl Dimethyl Sulphoxide (DMSO), and shocked to dissolve thoroughly, then the cell viability was measured by MTT method at 570 nm. All experiments were repeated in triplicate independently.

[2] = tested on: L-02 cells; test: MTT assay, cell viability of L-02 cells
Procedure: as §1, §2

[3] = tested on: L-02 cells; test: Biochemical indicators of hepatotoxicity (ALT, AST, LDH, ALP activity) of L-02 cells, without and with p38 inhibitor SB203580
Procedure: as §1
To determine how potential liver injury-compounds affected biochemical indicators of L-02 cells, we investigated the activities of AST, ALT, LDH and ALP in cell migration capacity under the different representative compounds conditions (representative compounds group), the inhibitor conditions (inhibitor group), and the negative control. For these experiments, three replicates were made for each concentration of the different representative compounds with liver injury, and each group was established three holes and cultured in 6 times repeatedly. […] Subsequently, the supernatant extraction of L02 cells was collected and centrifuged to detect the activities of AST, ALT, LDH, and ALP by chromatometry method.
To further and fully elucidating the mechanism of the liver injury caused by the representative compounds from urate-lowering Chinese herbs, we chose the p38α inhibitor, SB203580 to verify our findings. […] The specific composition information was shown in S2 Table. […] The Specific specific composition information is was shown in S4 Table.

[4] = tested on: p38α; test: Western blot, expression of p-p38α/p38α in L-02 cells, without and with inhibitor SB203580; conditions: for ratios of p-p38α/p38α expression compared with the blank groups, in words: L-02, 10μmol/L diosgein, 2000μmol/L baicalin, 60μmol/L terandrine, 6μmol/L evodiamine
Description: After the examination of biochemical indicators for hepatotoxicity in the cell, the expression of crucial liver injury protein in L02 cell lines among different groups was compared by Western blot analysis. Briefly, the proteins from different groups were harvested and lysed using lysis buffer (Sigma-Aldrich) containing a proteinase inhibitor cocktail (Sigma-Aldrich), the equal amounts of protein were separated by electrophoresis on a pre-cast 10% SDS-polyacrylamide gel (Bio-Rad, Hercules, CA) and transferred to polyvinylidene difluoride membranes (Millipore, Bedford, MA). Next, the membrane was blocked in TBST-T containing 5% skim milk for 2 h at room temperature and probed with anti-beta-catenin, and incubated overnight with the indicated primary antibody, followed by incubation with the secondary antibodies at room temperature for another 2 h. Finally, all the immune blots were visualized by enhanced chemiluminescence (Pierce Biotechnology, Inc., Rockford, IL, USA) and western blots were performed at least three times.
According to the results of network pharmacology, we examined the expression levels of p38α. […] The Specific specific composition information is was shown in S3 Table. […] However, the mechanism of saikosaponin D causing liver injury still remained unclear.
To further and fully elucidating the mechanism of the liver injury caused by the representative compounds from urate-lowering Chinese herbs, we chose the p38α inhibitor, SB203580 to verify our findings. Seemingly, the ALT, AST, ALP, and LDH activities of each group decreased to varying degrees under the influence of inhibitor. The specific composition information was shown in S2 Table. […] The Specific specific composition information is was shown in S4 Table.

[5] = S2 Table, L-02, 1000μmol/L+inhibitor (SB203580)
[6] = S2 Table, L-02, 1000μmol/L, no inhibitor
[7] = S2 Table, L-02, 2000μmol/L+inhibitor (SB203580)
[8] = S2 Table, L-02, 2000μmol/L, no inhibitor
[9] = Table 5, L-02 supernatant, 24 h, 1000μmol/L
[10] = Table 5, L-02 supernatant, 24 h, 2000μmol/L
[11] = S2 Table, L-02, 5μmol/L+inhibitor (SB203580)
[12] = S2 Table, L-02, 5μmol/L, no inhibitor
[13] = S2 Table, L-02, 10μmol/L+inhibitor (SB203580)
[14] = S2 Table, L-02, 10μmol/L, no inhibitor
[15] = Table 5, L-02 supernatant, 24 h, 5μmol/L
[16] = Table 5, L-02 supernatant, 24 h, 10μmol/L
[17] = Table 5, L-02 supernatant, 24 h, 15μmol/L
[18] = Table 5, L-02 supernatant, 24 h, 40μmol/L
[19] = Table 5, L-02 supernatant, 24 h, 60μmol/L
[20] = Table 5, L-02 supernatant, 24 h, 80μmol/L

## O=C(O)[C@H]1O[C@@H](Oc2cc3oc(-c4ccccc4)cc(=O)c3c(O)c2O)[C@H](O)[C@@H](O)[C@@H]1O [Baicalin]
[1]; 1000 μmol/L
  viability at 24 h, 1000 μmol/L: 154 ± 21.1%
[1]; 2000 μmol/L
  viability at 24 h, 2000 μmol/L: 98.6 ± 16.5%
[2]; dose of 2000μmol/L
  effect on L-02 (MTT), in words: trend of proliferative effects
[3]; [5]
  ALP: 0.70± 0.05 King's unit /100ml
  ALT: 1.88± 0.20 U/L
  AST: 4.12± 0.26 U/L
  LDH: 778.83± 14.65 U/L
[3]; [6]
  ALP: 0.86± 0.06 King's unit /100ml
  ALT: 2.24± 0.30 U/L
  AST: 4.45± 1.09 U/L
  LDH: 699.84± 33.81 U/L
[3]; [7]
  ALP: 0.85± 0.06 King's unit /100ml
  ALT: 2.27± 0.32 U/L
  AST: 4.38± 0.84 U/L
  LDH: 981.04± 3.87 U/L
[3]; [8]
  ALP: 0.92± 0.13 King's unit /100ml
  ALT: 2.01± 0.20 U/L
  AST: 4.48± 0.13 U/L
  LDH: 840.44± 32.45 U/L
[3]; [9]
  ALP: 2.03±0.44 King's unit /100ml
  ALT: 4.45±1.09 U/L
  AST: 690.76±33.24 U/L
  LDH: 0.81±0.10 U/L
[3]; [10]
  ALP: 1.94±0.21 King's unit /100ml
  ALT: 4.48±0.13 U/L
  AST: 824.64±39.22 U/L
  LDH: 0.84±0.18 U/L
[4]
  ratios of p-p38α/p38α expression compared with the blank groups, in words: increased
[4]; S3 Table, L-02, 24 hours of incubation, 1000μmol/L
  p-p38α/p38α: 1.24±0.29
[4]; S3 Table, L-02, 24 hours of incubation, 2000μmol/L
  p-p38α/p38α: 2.06±0.66
[4]; S4 Table, L-02, 24 hours, 1000μmol/L+inhibitor (SB203580)
  p-p38α/p38α: 0.76±0.15
[4]; S4 Table, L-02, 24 hours, 1000μmol/L, no inhibitor
  p-p38α/p38α: 1.25±0.24
[4]; S4 Table, L-02, 24 hours, 2000μmol/L+inhibitor (SB203580)
  p-p38α/p38α: 0.26±0.03
[4]; S4 Table, L-02, 24 hours, 2000μmol/L, no inhibitor
  p-p38α/p38α: 1.08±0.6

## O=c1c2ccccc2nc2n1CCc1c-2[nH]c2ccccc12 [Rutaecarpine]
[1]; 5 μmol/L
  viability at 24 h, 5 μmol/L: 92.7 ± 3.74%
[1]; 10 μmol/L
  viability at 24 h, 10 μmol/L: 81.3 ± 6.29%
[1]; 15 μmol/L
  viability at 24 h, 15 μmol/L: 80.5 ± 3.9%
[2]; dose of 5μmol/L
  cell viability of L-02 (MTT), in words: good potency inhibitor against the cell viability
[3]; [11]
  ALP: 1.13± 0.12 King's unit /100ml
  ALT: 5.01± 0.13 U/L
  AST: 9.25± 1.09 U/L
  LDH: 1193.32± 3.90 U/L
[3]; [12]
  ALP: 1.63± 0.03 King's unit /100ml
  ALT: 6.00± 0.43 U/L
  AST: 10.33± 0.74 U/L
  LDH: 1105.81± 85.95 U/L
[3]; [13]
  ALP: 1.39± 0.28 King's unit /100ml
  ALT: 5.63± 0.09 U/L
  AST: 10.52± 0.97 U/L
  LDH: 1217.18± 41.25 U/L
[3]; [14]
  ALP: 1.07± 0.14 King's unit /100ml
  ALT: 5.67± 0.12 U/L
  AST: 9.81± 0.74 U/L
  LDH: 1155.13± 35.72 U/L
[3]; [15]
  ALP: 5.77±0.54 King's unit /100ml
  ALT: 9.90±0.99 U/L
  AST: 1075.18±91.40 U/L
  LDH: 1.62±0.04 U/L
[3]; [16]
  ALP: 5.67±0.12 King's unit /100ml
  ALT: 8.81±1.85 U/L
  AST: 1127.68±56.72 U/L
  LDH: 1.54±0.36 U/L
[3]; [17]
  ALP: 5.54±0.57 King's unit /100ml
  ALT: 9.33±1.85 U/L
  AST: 1000.00±61.27 U/L
  LDH: 1.71±0.16 U/L

## C[S+]([O-])c1ccc(-c2nc(-c3ccncc3)c(-c3ccc(F)cc3)[nH]2)cc1 (stereo not shown) [SB203580, reference compound]
[3]; SB203580 at the dose of 20μmol/L added to components
  effect on component-induced cell damage of L-02 cells, in words: attenuate the component-induced cell damage

## COc1ccc2cc1Oc1ccc(cc1)C[C@H]1c3cc(c(OC)cc3CCN1C)Oc1c(OC)c(OC)cc3c1[C@H](C2)N(C)CC3 [Tetrandrine]
[1]; 40 μmol/L
  viability at 24 h, 40 μmol/L: 101 ± 9.72%
[1]; 60 μmol/L
  viability at 24 h, 60 μmol/L: 91.8 ± 4.63%
[1]; 80 μmol/L
  viability at 24 h, 80 μmol/L: 83.3 ± 5.22%
[2]; dose of 60–90 μmol/L
  cell survival rate, in words: lower cell survival rate
[3]; S2 Table, L-02, 40μmol/L, no inhibitor
  ALT: 16.55± 0.71 U/L
[3]; S2 Table, L-02, 60μmol/L, no inhibitor
  AST: 5.64± 0.56 U/L
[3]; [18]
  ALP: 16.55±0.71 ^*^Δ King's unit /100ml
  ALT: 4.36±0.35 U/L
  AST: 713.48±49.44 ^*^Δ U/L
  LDH: 0.79±0.08 U/L
[3]; [19]
  ALT: 5.01±1.20 U/L
  AST: 705.81±98.97^Δ U/L
  LDH: 0.82±0.16 U/L
[3]; [20]
  ALP: 17.45±0.35 ^**^ΔΔ King's unit /100ml
  ALT: 4.84±0.86 U/L
  AST: 736.08±77.41 ^*^Δ U/L
  LDH: 0.93±0.07 U/L
[4]; S3 Table, L-02, 24 hours of incubation, 40μmol/L
  p-p38α/p38α: 1.03±0.29
[4]; S3 Table, L-02, 24 hours of incubation, 60μmol/L
  p-p38α/p38α: 0.98±0.14
[4]; S3 Table, L-02, 24 hours of incubation, 80μmol/L
  p-p38α/p38α: 1.26±0.52
[4]; S4 Table, L-02, 24 hours, 40μmol/L+inhibitor (SB203580)
  p-p38α/p38α: 0.81±0.03
[4]; S4 Table, L-02, 24 hours, 40μmol/L, no inhibitor
  p-p38α/p38α: 0.97±0.03
[4]; S4 Table, L-02, 24 hours, 60μmol/L+inhibitor (SB203580)
  p-p38α/p38α: 0.98±0.17
[4]; S4 Table, L-02, 24 hours, 60μmol/L, no inhibitor
  p-p38α/p38α: 0.79±0.24
[4]; S4 Table, L-02, 24 hours, 80μmol/L+inhibitor (SB203580)
  p-p38α/p38α: 1.28±0.26
[4]; S4 Table, L-02, 24 hours, 80μmol/L, no inhibitor
  p-p38α/p38α: 1.17±0.07

## Evodiamine
[4]
  ratios of p-p38α/p38α expression compared with the blank groups, in words: increased
[4]; S3 Table, L-02, 24 hours of incubation, 5μmol/L
  p-p38α/p38α: 1.13±0.33
[4]; S3 Table, L-02, 24 hours of incubation, 6μmol/L
  p-p38α/p38α: 1.39±0.34
[4]; S3 Table, L-02, 24 hours of incubation, 7μmol/L
  p-p38α/p38α: 1.03±0.48
[4]; S4 Table, L-02, 24 hours, 5μmol/L+inhibitor (SB203580)
  p-p38α/p38α: 0.82±0.02
[4]; S4 Table, L-02, 24 hours, 5μmol/L, no inhibitor
  p-p38α/p38α: 1.74±0.42
[4]; S4 Table, L-02, 24 hours, 10μmol/L+inhibitor (SB203580)
  p-p38α/p38α: 0.47±0.03
[4]; S4 Table, L-02, 24 hours, 10μmol/L, no inhibitor
  p-p38α/p38α: 1.45±0.29
[4]; S4 Table, L-02, 24 hours, 15μmol/L+inhibitor (SB203580)
  p-p38α/p38α: 0.91±0.22
[4]; S4 Table, L-02, 24 hours, 15μmol/L, no inhibitor
  p-p38α/p38α: 1.39±0.77

Reference: publication PMC6541264, “Molecular mechanisms involved in drug-induced liver injury caused by urate-lowering Chinese herbs: A network pharmacology study and biology experiments” (PLoS ONE, 2019)
